# In US20150218212A1, “FLUORINATED EPOXYKETONE-BASED TETRAPEPTIDE COMPOUNDS AND USES THEREOF AS PROTEASOME INHIBITORS” (FLUORINOV PHARMA INC., priority 2012, published 2015):
# Target: T1, chymotrypsin-like (CT-L) proteasome activity (Homo sapiens, UniProt P20618+P28074)
# T1 sequence (P28074 60-263): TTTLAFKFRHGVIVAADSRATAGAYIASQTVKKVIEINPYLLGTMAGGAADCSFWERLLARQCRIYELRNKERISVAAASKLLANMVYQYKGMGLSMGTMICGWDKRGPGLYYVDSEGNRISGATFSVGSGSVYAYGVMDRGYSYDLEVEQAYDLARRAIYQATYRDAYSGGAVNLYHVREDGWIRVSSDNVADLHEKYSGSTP
# T1 sequence (P20618 29-241): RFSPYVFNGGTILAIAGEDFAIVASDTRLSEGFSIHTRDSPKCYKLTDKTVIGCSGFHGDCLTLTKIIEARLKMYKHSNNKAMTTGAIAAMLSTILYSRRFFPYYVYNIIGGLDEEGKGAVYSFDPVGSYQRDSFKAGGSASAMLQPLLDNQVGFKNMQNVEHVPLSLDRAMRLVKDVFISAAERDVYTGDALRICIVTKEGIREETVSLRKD
# Assay: Proteasome enzymatic activity (tumor cell lysates), CT-L, KMS-11
# Format: biochemical
# Settings: KMS-11, mean ± standard deviation
# Procedure: Human multiple myeloma cell lines 8226, H929, JJN3, KMH11, KMS11, KMS18, LP1, MM1S, OPM2 and U266 were grown in Iscove modified Dulbecco's medium (IMDM). Human leukemia cell lines K562, OCI-AML2 and U937 were cultured in RPMI-1640 medium. Primary peripheral blood mononuclear cells were isolated from multiple myeloma patients by Ficoll density gradient centrifugation and bone marrow aspirates were obtained from multiple myeloma patients at the Princess Margaret Cancer Centre of the University Health Network (UHN; Toronto, ON, Canada). Primary cells were cultured in IMDM. The collection and use of human tissue for this study was approved by the UHN institutional ethics review board. All cell culture media were obtained from the Ontario Cancer Institute Tissue Culture Media Facility (Toronto, ON, Canada) and were supplemented with 10% fetal calf serum, […] (Hyclone, Logan, Utah). All cells were grown in a humidified incubator at 37° C. with 5% CO2.
# Cells were harvested by centrifugation at 1,200 rpm at room temperature. Cell pellets were washed with PBS (phosphate buffered saline) and lysed with assay lysis buffer (50 mM HEPES (N-2-hydroxyethylpiperazine-N′-2-ethanesulfonic acid), pH 7.5; 150 mM NaCl; 1% Triton X-100; 2 mM ATP). Cell lysates were incubated on ice for 30 minutes, mixed by vortex every 5 minutes, and then centrifuged at 12,000 g for 10 minutes. The supernatant was transferred to a 96-well plate. For each assay, 10 μg of total protein were incubated for 1 hour at 37° C. with increasing concentrations (1 nM to 10 μM) of test compound diluted in assay buffer (50 mM tris-HCl (tris(hydroxymethyl)aminomethane-HCl), pH 7.5; 150 mM NaCl). DMSO alone was used as a control in every assay plate. After incubation, a specific fluorogenic proteasome substrate was added to each assay reaction at a final concentration of 40 μM in a total volume of 100 μL. N-Succinyl-Leu-Leu-Val-Tyr-7-amino-4-methylcoumarin (Suc-Leu-Leu-Val-Tyr-AMC) was used for measuring chymotrypsin-like (CT-L) activity, t-butoxycarbonyl-Leu-Arg-Arg-7-amino-4-methylcoumarin (Boc-Leu-Arg-Arg-AMC) for trypsin-like (T-L) activity, and benzyloxycarbonyl-L-leucyl-L-leucyl-L-glutamyl-7-amino-4-methylcoumarin (Z-Leu-Leu-Glu-AMC) for caspase-like (C-L) activity. The excitation wavelength was set at 360 nm and the fluorescence emission wavelength of AMC was detected at 460 nm. The fluorescence of free AMC released during the enzymatic reaction was measured with a SpectraMax M5 fluorescent spectrophotometric plate reader (Molecular Devices, Sunnyvale, Calif.). AMC release rate was measured at 37° C. in a kinetic mode, recording every 5 minutes for 30 minutes. Experiments were performed in triplicate and repeated at least twice.
# Table 8 summarizes the data of representative compounds of Formula I for cell viability and CT-L proteasome activity with OCI-AML-2 and KMS-11 cell lines.
row,SMILES,IC50
1,"CC(C)C[C@H](NC(=O)[C@H](COC(F)F)NC(=O)CN1CCOCC1)C(=O)N[C@@H](COC(F)F)C(=O)N[C@@H](CC(C)C)C(=O)[C@@]1(C)CO1 [Example 1, (2S)—N-[(1S)-1-(difluoromethoxymethyl)-2-[[(1S)-3-methyl-1-[(2R)-2-methyloxirane-2-carbonyl]butyl]amino]-2-oxo-ethyl]-2-[[(2S)-3-(difluoromethoxy)-2-[(2-morpholinoacetyl)amino]propanoyl]amino]-4-methyl-pentanamide]",40.4 ± 6.97 nM
2,"CC(C)C[C@H](NC(=O)[C@H](COC(F)F)NC(=O)CN1CCOCC1)C(=O)N[C@@H](Cc1ccccc1)C(=O)N[C@@H](CC(C)C)C(=O)[C@@]1(C)CO1 [Example 2, (2S)-N-[(1S)-1-benzyl-2-[[(1S)-3-methyl-1-[(2R)-2-methyloxirane-2-carbonyl]butyl]-amino]-2-oxo-ethyl]-2-[[(2S)-3-(difluoromethoxy)-2-[(2-morpholinoacetyl)amino]propanoyl]amino]-4-methyl-pentanamide]",46.8 ± 1.58 nM
3,"CC(C)C[C@H](NC(=O)[C@H](COC(F)F)NC(=O)CN1CCOCC1)C(=O)N[C@@H](Cc1ccccc1)C(=O)N[C@@H](Cc1ccccc1)C(=O)[C@@]1(C)CO1 [Example 3, (2S)-N-[(1S)-1-benzyl-2-[[(1S)-1-benzyl-2-[(2R)-2-methyloxiran-2-yl]-2-oxo-ethyl]amino]-2-oxo-ethyl]-2-[[(2S)-3-(difluoromethoxy)-2-[(2-morpholinoacetyl)-amino]propanoyl]amino]-4-methyl-pentan-amide]",38.2 ± 2.81 nM
4,"CC(C)C[C@H](NC(=O)[C@H](COC(F)F)NC(=O)CN1CCOCC1)C(=O)N[C@@H](COC(F)F)C(=O)N[C@@H](Cc1ccccc1)C(=O)[C@@]1(C)CO1 [Example 4, (2S)-N-[(1S)-2-[[(1S)-1-benzyl-2-[(2R)-2-methyloxiran-2-yl]-2-oxo-ethyl]amino]-1-(difluoromethoxymethyl)-2-oxo-ethyl]-2-[[(2S)-3-(difluoromethoxy)-2-[(2-mor-pholinoacetyl)amino]propanoyl]amino]-4 methyl-pentanamide]",45.7 ± 8.26 nM
5,"CC(C)C[C@H](NC(=O)[C@H](COC(F)F)NC(=O)[C@H](COC(F)F)NC(=O)[C@H](CCc1ccccc1)NC(=O)CN1CCOCC1)C(=O)[C@@]1(C)CO1 [Example 7, (2S)-N-[(1S)-1-(difluoromethoxymethyl)-2-[[(1S)-1-(difluoromethoxymethyl)-2-[[(1S)-3-methyl-1-[(2R)-2-methyloxirane-2-carbo-nyl]butyl]amino]-2-oxo-ethyl]amino]-2-oxo-ethyl]-2-[(2-morpholinoacetyl)amino]-4-phenyl-butanamide]",33.7 ± 5.6 nM
6,"CC(C)C[C@H](NC(=O)[C@H](Cc1ccccc1)NC(=O)[C@H](COC(F)F)NC(=O)[C@H](COC(F)F)NC(=O)CN1CCOCC1)C(=O)[C@@]1(C)CO1 [Example 11, (2S)-2-[[(2S)-3-(difluoromethoxy)-2-[[(2S)-3-(difluoromethoxy)-2-[(2-morpholinoacetyl)-amino]propanoyl]amino]propanoyl]amino]-N-[(1S)-3-methyl-1-[(2R)-2-methyloxirane-2-carbonyl]butyl]-3-phenyl-propanamide]",50.7 ± 7.72 nM
7,"CC(C)C[C@H](NC(=O)[C@H](COC(F)F)NC(=O)[C@H](COC(F)F)NC(=O)[C@H](COC(F)F)NC(=O)CN1CCOCC1)C(=O)[C@@]1(C)CO1 [Example 17, (2S)-3-(difluoromethoxy)-N-[(1S)-1-(difluoromethoxymethyl)-2-[[(1S)-1-(difluoro-methoxymethyl)-2-[[(1S)-3-methyl-1-[(2R)-2-methyloxirane-2-carbonyl]butyl]amino]-2-oxo-ethyl]amino]-2-oxo-ethyl]-2-[(2-mor-pholinoacetyl)amino]-propanamide]",77.8 ± 6.77 nM
